For series [1], the system named is growth hormone receptor mRNA. The experiment in a line: Growth hormone receptor mRNA levels in liver, additional 1 week study. To be noted: one-week study. The series is classed as in vivo, mouse. As to the method: Male Balb/C(a) mice were prepared and grouped for analysis as in Example 18 above.
Animals were treated and serum IGF-I levels were measured as in Example 18 above. Briefly, for the one-week study, mice were given a subcutaneous dose of saline every second day, and mismatch control or antisense with administration on days 0, 2, 4, 6. On day 7, the animals were anaesthetized with pentobarbital and non-fasting blood samples collected exactly 5 minutes later from the retrobulbar plexus through heparinized capillary tubes under light ether anesthesia. Serum IGF-I measurement was done by radioimmunoassay at day 7.
Growth hormone receptor mRNA levels in liver tissue samples from treated and untreated mice in this one-week study were assayed. The growth hormone receptor antisense inhibitor ISIS 227446 reduced growth hormone receptor mRNA levels in liver after the one-week study by 72% at the 50 mg/kg dose, relative to saline control (p<0.0001). The 30 mg/kg dose of ISIS 227446 yielded a 50% decrease in growth hormone receptor mRNA (p<0.0001). The unrelated control oligonucleotide ISIS 260120, at 50 mg/kg, reduced growth hormone receptor mRNA levels by approximately 15% (p>0.05).

Series [2] has as its system serum IGF-I. The experiment in a line: Serum IGF-I, two-week mouse study. The series is classed as in vivo. To be noted: for % decrease relative to 3 mg/kg ISIS 227446: day 14. Here is the method: A two-week study was done in similar fashion to the one-week study in Example 18, this time using ISIS 227446 at doses of 3, 5, 10, 20 and 30 mg/kg. The mismatch control was given at the same doses. Mice were treated with antisense compound or saline every other day for 14 days.
P-values were determined by t-test.

In series [3] the test system is blood vessel profiles (BVPs) in the inner retina. Description: Oxygen-induced retinopathy (ROP) in mice, blood vessel profiles in the inner retina. The format is in vivo, mouse. As to the method: Oxygen-induced retinopathy (also called retinopathy of prematurity or ROP) in laboratory animals is a widely used model for the study of retinal microvascular complications. Wilkinson-Berka et al., 2003, Invest. Opthalmol. V is Sci. 44, 974; Morayski, C. et al., 2000, Hypertension, 36,1099-1104.
To produce ROP, seven-day-old mice were placed in an infant incubator with their nursing mother in 75% oxygen from postnatal day 7 to day 12 as described in the literature. Smith et al., 1994, Invest Ophthalmol V is Sci 35, 101-111; Robinson et al., Proc Natl Acad Sci USA., 1996, May 14; 93, 4851-6. On postnatal day 12, the animals were returned to room air. Animals were sacrificed on postnatal day 17 when maximal neovascularization is observed. Sham-treated animals are handled similarly but are maintained in room air at all times.
Mice were dosed with antisense oligonucleotide in saline (total volume […]) at postnatal days 12, 13, 14, 15, and 16 or days 7, 8, 9, 11, 13, 15 and 17. Oligonucleotide was administered intraperitoneally at concentrations of 5, 10, 20 and 30 mg/kg. The mismatch control ISIS 261303 is also given.
Blood vessel profiles (BVPs) in the inner retina are quantitated in eyes from 36 experimental groups. Each group contains 8 retina from 8 different mice. Tables 7, 8 and 9 indicate 1) from which groups eyes have been collected to date for sectioning and 2) how many animals have had BVPs quantitated to date in each experimental group.
“Early intervention” (“Early I” in Tables 8-10) is used to describe mice pups that have been administered agents at postnatal days 7, 8, 9, 11, 13, 15 and 17 (7 doses). “Late intervention” (“Late I” in Tables 7-10) is used to describe mice pups administered agents at postnatal days 12, 13, 14, 15 and 16 (5 doses). All treatments were by intraperitoneal injection. Counting of blood vessel profiles (BVPs) in the inner retina is performed in a masked manner by investigators blinded to the experimental groups.

Marks after values point to notes of the source that are not given here. In the oligonucleotide strings, read from the 5' end, every base follows the letter of its sugar. An asterisk marks phosphorothioate; unmarked linkages are phosphodiester. Other units and linkages are bracketed, terminal groups are in braces. A string of capitals states the bases alone. e = 2'-O-(2-methoxyethyl) (MOE); [5mC] = 5-methylcytosine; d = 2'-deoxy (DNA)

Take “acaaagatccatacctgaga (eA*e[5mC]*eA*eA*eA*dG*dA*dT*d[5mC]*d[5mC]*dA*dT*dA*d[5mC]*d[5mC]*eT*eG*eA*eG*eA; antisense) [ISIS 227446]”: the “decrease in growth hormone receptor mRNA in liver” value in series [1] (30 mg/kg) is 50%. Further, the “reduction of growth hormone receptor mRNA levels in liver relative to saline control” value in series [1] (50 mg/kg) worked out at 72%. Also, the “Day 14 serum IGF-I” value in series [2] (3 mg/kg every other day for 14 days) was 214 ng/mL; in series [2] (5 mg/kg every other day for 14 days), 194 ng/mL; in series [2] (10 mg/kg every other day for 14 days), 130 ng/mL; in series [2] (20 mg/kg every other day for 14 days) it was 122 ng/mL; in series [2] (30 mg/kg every other day for 14 days), 126 ng/mL. For the same substance, the “effect on serum IGF-I levels” value in series [2] (3 mg/kg, 14 days, equivalent to saline control (separate experiment)) is given as “no effect”. For the same substance, the “% decrease relative to 3 mg/kg ISIS 227446” value stood at 0% in series [2] (3 mg/kg); 9% in series [2] (5 mg/kg); 39% in series [2] (10 mg/kg); 43% in series [2] (20 mg/kg); 41% in series [2] (30 mg/kg). Moreover, the “decrease in serum IGF-I levels compared to 3 mg/kg” value in series [2] (>10 mg/kg, 14 days) is 39-43%. Besides, the “Average # BVPs” value in series [3] (ROP + 5 mg/kg ip, Early I) was 28.25; in series [3] (ROP + 5 mg/kg ip, Late I), 25.19; in series [3] (ROP + 10 mg/kg ip, Early I), 23.18; in series [3] (ROP + 30 mg/kg ip, Late I), 24.24; in series [3] (Sham + 20 mg/kg ip, Early I (postnatal days 7, 8, 9, 11, 13, 15, 17)), 9.97*; in series [3] (Sham + 30 mg/kg ip, Early I), 10.94*. In series [3] (Sham + 30 mg/kg ip, Late I (postnatal days 12-16)), the “Average # BVPs” value is on record as 11.25*. Besides, the “effect on blood vessel profiles in sham-treated (no retinopathy) mice” value in series [3] (early intervention) was “no effect”.

For the origin of these results see patent US8637484B2, “Modulation of growth hormone receptor expression and insulin-like growth factor expression” (Antisense Therapeutic Limited, priority 2003, dated 2014).
